These results are taken from US20090311217A1, “3-SUBSTITUTED-1H-INDOLE COMPOUNDS, THEIR USE AS MTOR KINASE AND PI3 KINASE INHIBITORS, AND THEIR SYNTHESES” (priority 2008, published 2009).

Read-outs that look alike come from different tables or passages of the source. Some results are limits rather than exact numbers.

The IC50 is the concentration that gives 50% inhibition. For orientation: melting point means the temperature, or range, at which the solid turns liquid.

One data set concerns the target T1, human TOR (Homo sapiens, UniProt P42345).
T1 construct: FLAG
Briefly: mTOR enzyme assay (DELFIA, His6-S6K substrate). Type of data set: biochemical. The following applies: read-out: mTOR Kinase Avg. IC50.

For a further data set, the target named is PI3K-alpha (Homo sapiens, UniProt P42336). Briefly: PI3K-alpha fluorescence polarization assay. Type of data set: biochemical. In general terms: Fluorescence polarisation rises when a labelled molecule tumbles more slowly, as on binding a larger partner.
The next data set has as its target PI3K-gamma (Homo sapiens, UniProt P48736). Briefly: PI3K-gamma fluorescence polarization assay. In kind it is biochemical. The following applies: PI3Kγ Avg. IC50. An outline of the steps:
(§1)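 Inhibition is derived from a polarization signal: after a 1 h, 25° C kinase step (25 μM ATP, 2.5 μM diC8-PIP2, pH 7), EDTA stops the reaction and the GRP1 PH domain/TMR-IP4 pair reports lipid product.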

The subject of data set [1] is human tumor xenograft models. The following applies: cited from earlier work.
The test system of data set [2] is acute lymphoblastic leukemia. The note with it: in vivo; cited from earlier work.
The target of another data set is PI3K-beta (Homo sapiens, UniProt P42338). The data set can be described thus: PI3K-beta fluorescence polarization assay. Type of data set: biochemical. The note with it: read-out: PI3Kβ Avg. IC50. An outline of the steps:
as §1

The next data set deals with PI3K-delta (Homo sapiens, UniProt O00329). Briefly: PI3K-delta fluorescence polarization assay. In kind it is biochemical.
The next data set addresses mTOR (Homo sapiens, UniProt P42345). The note with it: mTOR enzymes; cited from earlier work.

PI3K-gamma, sequence (P48736 whole entry, species assumed, the tested form may be a part): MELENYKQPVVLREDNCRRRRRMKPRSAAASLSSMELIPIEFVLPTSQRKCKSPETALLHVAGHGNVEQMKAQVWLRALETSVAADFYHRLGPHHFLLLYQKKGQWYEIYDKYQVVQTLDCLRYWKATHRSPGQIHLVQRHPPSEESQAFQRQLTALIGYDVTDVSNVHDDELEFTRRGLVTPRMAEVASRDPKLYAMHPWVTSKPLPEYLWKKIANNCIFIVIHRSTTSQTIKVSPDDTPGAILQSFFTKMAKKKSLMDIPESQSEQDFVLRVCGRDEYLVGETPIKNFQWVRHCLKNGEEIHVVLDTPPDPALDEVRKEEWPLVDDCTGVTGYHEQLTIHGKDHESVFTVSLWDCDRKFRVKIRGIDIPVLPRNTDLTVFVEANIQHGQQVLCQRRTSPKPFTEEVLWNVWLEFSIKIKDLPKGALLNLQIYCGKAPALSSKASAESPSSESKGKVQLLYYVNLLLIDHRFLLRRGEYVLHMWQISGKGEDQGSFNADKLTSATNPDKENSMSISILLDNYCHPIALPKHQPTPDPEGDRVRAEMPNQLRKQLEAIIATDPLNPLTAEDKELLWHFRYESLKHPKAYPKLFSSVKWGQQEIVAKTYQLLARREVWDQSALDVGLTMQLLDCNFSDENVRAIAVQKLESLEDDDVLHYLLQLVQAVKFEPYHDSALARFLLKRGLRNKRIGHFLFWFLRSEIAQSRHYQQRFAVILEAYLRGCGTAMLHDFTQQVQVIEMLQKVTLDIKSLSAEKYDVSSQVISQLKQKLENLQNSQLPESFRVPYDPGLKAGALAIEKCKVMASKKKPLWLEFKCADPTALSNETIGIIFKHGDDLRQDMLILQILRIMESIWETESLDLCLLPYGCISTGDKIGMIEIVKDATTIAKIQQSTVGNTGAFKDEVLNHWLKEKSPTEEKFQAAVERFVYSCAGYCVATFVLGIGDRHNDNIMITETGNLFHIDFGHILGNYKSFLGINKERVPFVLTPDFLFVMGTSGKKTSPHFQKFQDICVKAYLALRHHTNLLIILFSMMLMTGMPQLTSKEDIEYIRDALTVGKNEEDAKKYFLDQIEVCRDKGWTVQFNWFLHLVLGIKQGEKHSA
PI3K-beta, sequence (P42338 whole entry, species assumed): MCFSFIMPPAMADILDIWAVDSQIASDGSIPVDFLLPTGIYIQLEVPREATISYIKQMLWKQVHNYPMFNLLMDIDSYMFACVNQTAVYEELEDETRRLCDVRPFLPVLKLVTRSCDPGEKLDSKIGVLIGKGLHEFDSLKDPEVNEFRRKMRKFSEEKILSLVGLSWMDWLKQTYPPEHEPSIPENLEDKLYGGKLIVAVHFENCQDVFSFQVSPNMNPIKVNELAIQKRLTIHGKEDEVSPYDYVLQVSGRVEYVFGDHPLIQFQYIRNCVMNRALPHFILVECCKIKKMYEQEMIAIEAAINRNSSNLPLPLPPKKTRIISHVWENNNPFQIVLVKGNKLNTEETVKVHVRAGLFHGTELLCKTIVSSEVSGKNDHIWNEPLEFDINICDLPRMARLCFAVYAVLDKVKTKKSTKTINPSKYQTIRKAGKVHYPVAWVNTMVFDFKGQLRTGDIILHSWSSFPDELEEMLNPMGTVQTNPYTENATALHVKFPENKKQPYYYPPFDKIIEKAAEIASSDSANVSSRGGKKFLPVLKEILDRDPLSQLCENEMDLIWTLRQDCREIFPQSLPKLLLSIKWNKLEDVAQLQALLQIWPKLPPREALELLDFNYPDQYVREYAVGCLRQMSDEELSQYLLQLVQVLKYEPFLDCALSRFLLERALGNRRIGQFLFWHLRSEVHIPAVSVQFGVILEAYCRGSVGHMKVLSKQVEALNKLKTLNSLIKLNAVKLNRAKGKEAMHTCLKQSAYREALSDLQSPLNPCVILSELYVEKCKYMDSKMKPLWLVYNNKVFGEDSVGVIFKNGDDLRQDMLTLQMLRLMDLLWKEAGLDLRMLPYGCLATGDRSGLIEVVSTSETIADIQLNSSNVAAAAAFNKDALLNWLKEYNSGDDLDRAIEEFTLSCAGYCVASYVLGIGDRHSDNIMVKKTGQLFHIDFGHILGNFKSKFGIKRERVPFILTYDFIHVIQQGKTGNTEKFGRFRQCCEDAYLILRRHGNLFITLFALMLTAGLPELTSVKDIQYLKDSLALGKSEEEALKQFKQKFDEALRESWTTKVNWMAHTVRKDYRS
PI3K-beta, sequence (P27986 whole entry partner, species assumed): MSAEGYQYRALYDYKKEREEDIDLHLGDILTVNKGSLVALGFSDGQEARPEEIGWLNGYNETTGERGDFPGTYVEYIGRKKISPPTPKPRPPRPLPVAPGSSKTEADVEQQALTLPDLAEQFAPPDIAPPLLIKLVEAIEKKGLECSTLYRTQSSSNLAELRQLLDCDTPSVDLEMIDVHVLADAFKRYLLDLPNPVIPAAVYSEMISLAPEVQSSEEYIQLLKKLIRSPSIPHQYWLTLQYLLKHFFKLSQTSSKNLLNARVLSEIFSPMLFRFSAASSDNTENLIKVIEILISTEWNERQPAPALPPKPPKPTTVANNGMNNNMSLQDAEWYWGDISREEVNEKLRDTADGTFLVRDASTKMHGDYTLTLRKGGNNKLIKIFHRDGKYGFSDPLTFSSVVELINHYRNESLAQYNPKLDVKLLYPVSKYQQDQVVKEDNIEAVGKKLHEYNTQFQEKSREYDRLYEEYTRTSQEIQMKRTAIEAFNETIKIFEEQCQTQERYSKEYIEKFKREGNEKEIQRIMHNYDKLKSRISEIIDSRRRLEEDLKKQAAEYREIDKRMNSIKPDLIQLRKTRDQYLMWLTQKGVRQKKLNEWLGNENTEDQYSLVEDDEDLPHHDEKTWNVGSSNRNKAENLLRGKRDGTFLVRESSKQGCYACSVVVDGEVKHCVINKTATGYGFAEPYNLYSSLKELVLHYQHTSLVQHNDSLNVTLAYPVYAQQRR
PI3K-delta, sequence (O00329 whole entry, species assumed): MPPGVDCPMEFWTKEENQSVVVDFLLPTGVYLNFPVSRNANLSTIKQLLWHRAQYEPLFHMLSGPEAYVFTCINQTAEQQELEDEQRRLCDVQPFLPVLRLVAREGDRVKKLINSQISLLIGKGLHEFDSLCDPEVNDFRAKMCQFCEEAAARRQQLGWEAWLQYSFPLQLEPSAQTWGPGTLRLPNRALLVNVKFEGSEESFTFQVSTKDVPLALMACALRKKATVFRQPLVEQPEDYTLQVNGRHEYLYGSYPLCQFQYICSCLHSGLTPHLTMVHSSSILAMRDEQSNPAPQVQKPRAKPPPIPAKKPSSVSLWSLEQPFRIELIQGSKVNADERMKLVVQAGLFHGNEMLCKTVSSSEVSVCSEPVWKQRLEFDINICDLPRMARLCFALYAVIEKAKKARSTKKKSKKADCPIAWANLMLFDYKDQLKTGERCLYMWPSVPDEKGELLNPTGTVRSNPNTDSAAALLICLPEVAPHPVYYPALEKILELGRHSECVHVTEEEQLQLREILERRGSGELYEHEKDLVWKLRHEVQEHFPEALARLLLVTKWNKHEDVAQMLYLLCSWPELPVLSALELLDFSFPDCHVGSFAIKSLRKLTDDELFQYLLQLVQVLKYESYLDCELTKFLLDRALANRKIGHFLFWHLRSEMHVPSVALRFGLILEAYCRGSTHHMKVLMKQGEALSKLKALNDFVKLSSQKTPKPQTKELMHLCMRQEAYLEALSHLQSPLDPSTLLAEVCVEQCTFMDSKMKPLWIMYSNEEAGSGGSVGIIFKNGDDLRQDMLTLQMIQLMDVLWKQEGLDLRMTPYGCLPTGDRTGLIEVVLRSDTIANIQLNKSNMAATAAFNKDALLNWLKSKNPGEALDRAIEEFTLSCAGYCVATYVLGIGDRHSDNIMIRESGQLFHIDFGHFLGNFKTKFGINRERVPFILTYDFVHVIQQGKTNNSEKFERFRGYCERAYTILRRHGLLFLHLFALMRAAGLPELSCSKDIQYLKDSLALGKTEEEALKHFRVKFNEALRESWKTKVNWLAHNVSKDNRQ
PI3K-delta, sequence (P27986 whole entry partner, species assumed): as the sequence (P27986 whole entry partner, species assumed) above
PI3K-alpha, sequence (P42336 whole entry, species assumed): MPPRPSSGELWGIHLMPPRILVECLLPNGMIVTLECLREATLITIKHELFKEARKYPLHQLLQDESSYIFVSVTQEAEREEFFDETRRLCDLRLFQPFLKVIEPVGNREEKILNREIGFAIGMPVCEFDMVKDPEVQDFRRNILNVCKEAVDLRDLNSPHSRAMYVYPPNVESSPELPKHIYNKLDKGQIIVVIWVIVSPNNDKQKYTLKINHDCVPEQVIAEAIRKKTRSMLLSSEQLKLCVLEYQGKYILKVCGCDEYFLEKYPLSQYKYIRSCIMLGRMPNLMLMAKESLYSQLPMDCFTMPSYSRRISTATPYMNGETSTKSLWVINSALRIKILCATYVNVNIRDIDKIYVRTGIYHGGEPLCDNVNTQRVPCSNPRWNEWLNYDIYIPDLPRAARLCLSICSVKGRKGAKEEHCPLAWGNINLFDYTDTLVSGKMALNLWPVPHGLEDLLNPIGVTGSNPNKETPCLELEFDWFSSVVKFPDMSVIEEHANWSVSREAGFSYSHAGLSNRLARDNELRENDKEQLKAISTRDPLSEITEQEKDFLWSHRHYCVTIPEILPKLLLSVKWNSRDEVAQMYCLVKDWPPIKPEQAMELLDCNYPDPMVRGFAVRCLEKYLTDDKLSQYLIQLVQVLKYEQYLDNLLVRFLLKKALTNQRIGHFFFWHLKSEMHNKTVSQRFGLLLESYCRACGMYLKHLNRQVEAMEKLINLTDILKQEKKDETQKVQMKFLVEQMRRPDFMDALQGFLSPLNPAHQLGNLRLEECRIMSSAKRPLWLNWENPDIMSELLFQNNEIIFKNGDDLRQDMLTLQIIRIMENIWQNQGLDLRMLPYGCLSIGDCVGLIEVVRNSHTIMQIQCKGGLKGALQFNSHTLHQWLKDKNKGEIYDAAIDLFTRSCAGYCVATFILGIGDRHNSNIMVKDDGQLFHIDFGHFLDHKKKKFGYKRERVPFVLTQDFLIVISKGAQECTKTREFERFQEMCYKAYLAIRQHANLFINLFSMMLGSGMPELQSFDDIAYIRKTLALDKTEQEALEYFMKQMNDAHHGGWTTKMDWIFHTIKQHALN
PI3K-alpha, sequence (P27986 whole entry partner, species assumed): as the sequence (P27986 whole entry partner, species assumed) above

As for `COc1cc(O)c2c(c1)O/C(=C\c1c(-c3ccccc3)n(C)c3ccccc13)C2=O` [Example 421, (2Z)-4-hydroxy-6-methoxy-2-[(1-methyl-2-phenyl-1H-indol-3-yl)methylene]benzofuran-3(2H)-one], the melting point is 221 to 223 °C. Further, on human TOR, the IC50 is over 20000 nM. In addition, the 50% inhibitory concentration (IC50) on PI3K-alpha (read-out: PI3Kα Avg. IC50) was over 10000 nM. This molecule returned an IC50 against PI3K-gamma of over 10000 nM.
As to `Oc1cccc(-c2nc(N3CCOCC3)c3oc4ncccc4c3n2)c1` [PI103, 3-(4-(4-morpholinyl)pyrido[3′,2′:4,5]furo[3,2-d]pyrimidin-2-yl)phenol], the “activity in human tumor xenograft models” value in data set [1] (I.P. dosing in mice, U87MG, PC3, MDA-MB-468, MDA-MB-435, HCT 116, SKOV3, IGROV-1) was “demonstrated activity”.
The molecule `COc1cc(OC)c2c(c1)O/C(=C\c1c(-c3ccccc3)n(C)c3ccccc13)C2=O` [Example 409, (2Z)-4,6-dimethoxy-2-[(1-methyl-2-phenyl-1H-indol-3-yl)methylene]benzofuran-3(2H)-one] came in with a melting point of 257 to 258 °C. Further, at human TOR, the IC50 was over 20000 nM. The half-maximal inhibitory concentration (IC50) at PI3K-alpha (read-out: PI3Kα Avg. IC50) is over 10000 nM. This molecule also showed a concentration for half-maximal inhibition (IC50) against PI3K-gamma of 1990 nM.
Regarding `Cn1c(=O)n(-c2ccc(C(C)(C)C#N)cc2)c2c3cc(-c4cnc5ccccc5c4)ccc3ncc21` [NVP-BEZ-235, 2-methyl-2-(4-(3-methyl-2-oxo-8-(quinolin-3-yl)-2,3-dihydro-1H-imidazo[4,5-c]quinolin-1-yl)phenyl)propanenitrile], the “activity in human tumor xenograft models” value in data set [1] (prostrate (PC-3) and glioblastoma (U-87)) is given as “demonstrated activity”.
With `COc1ccc(-c2cccc3c2c(/C=C2\Oc4cc(O)cc(O)c4C2=O)cn3C)cc1` [Example 376, (2Z)-4,6-dihydroxy-2-{[4-(4-methoxyphenyl)-1-methyl-1H-indol-3-yl]methylene}benzofuran-3(2H)-one], the melting point was 289 to 291 °C (dec.). Further, the IC50 on human TOR worked out at 128 nM. Moreover, on PI3K-alpha (read-out: PI3Kα Avg. IC50), the half-maximal inhibitory concentration (IC50) was found to be 2080 nM. Moreover, 3800 nM corresponded to half-maximal inhibition against PI3K-gamma (IC50).
For `CO[C@H]1C[C@@H]2CC[C@@H](C)[C@@](O)(O2)C(=O)C(=O)N2CCCC[C@H]2C(=O)O[C@H]([C@H](C)C[C@@H]2CC[C@@H](OC(=O)C(C)(CO)CO)[C@H](OC)C2)CC(=O)[C@H](C)/C=C(\C)[C@@H](O)[C@@H](OC)C(=O)[C@H](C)C[C@H](C)/C=C/C=C/C=C/1C` [Torisel], the “activity in NOS/SCID xenograft mouse model of acute lymphoblastic leukemia” value in data set [2] was “active”.
Turning to `COc1ccc2c(c1)c(/C=C1\Oc3cc(O)cc(O)c3C1=O)c(-c1c(C)noc1C)n2CCN1CCN(C)CC1` [Example 344, (2Z)-2-({2-(3,5-Dimethylisoxazol-4-yl)-5-methoxy-1-[2-(4-methylpiperazin-1-yl)ethyl]-1H-indol-3-yl}methylene)-4,6-dihydroxy-1-benzofuran-3(2H)-one], the IC50 on human TOR was determined as 5.25 nM; at PI3K-alpha (read-out: PI3Kα Avg. IC50) it was 4.4 nM; on PI3K-beta it was 5.9 nM; at PI3K-delta (read-out: PI3Kδ Avg. IC50), 0.9 nM; against PI3K-gamma, 99 nM.
For the molecule `COc1ccc2c(c1)c(C=C1Oc3cc(O)cc(O)c3C1=O)cn2C` [Example 84, 4,6-dihydroxy-2-[(5-methoxy-1-methyl-1H-indol-3-yl)methylene]-1-benzofuran-3(2H)-one], the IC50 at human TOR amounted to 65.2 nM; against PI3K-alpha (PI3Kα Avg. IC50) it was 106 nM; on PI3K-beta, 547 nM; on PI3K-delta, 110 nM; at PI3K-gamma it was 586 nM.
As to `COc1ccc2c(c1)c(/C=C1\Oc3cc(O)cc(O)c3C1=O)c(C(F)(F)F)n2CCO` [Example 332, (2Z)-4,6-Dihydroxy-2-{[1-(2-hydroxyethyl)-5-methoxy-2-(trifluoromethyl)-1H-indol-3-yl]methylene}-1-benzofuran-3(2H)-one], the IC50 at human TOR is under 21 nM; on PI3K-alpha (read-out: PI3Kα Avg. IC50), 5 nM; on PI3K-beta, 13.3 nM; on PI3K-delta (read-out: PI3Kδ Avg. IC50), 7.8 nM; against PI3K-gamma, 22 nM.
For `O=C1/C(=C/c2c(-c3ccc4ccccc4c3)[nH]c3ccccc23)Oc2c1ccc(O)c2O` [Example 55, (2Z)-6,7-dihydroxy-2-{[2-(2-naphthyl)-1H-indol-3-yl]methylene}-1-benzofuran-3(2H)-one], the IC50 at human TOR is 10000 nM; on PI3K-alpha (read-out: PI3Kα Avg. IC50), 72.7 nM; at PI3K-beta it was 72 nM; on PI3K-delta (read-out: PI3Kδ Avg. IC50), 32 nM; against PI3K-gamma, 716 nM.
Turning to `COc1ccc2[nH]c(-c3cccnc3)c(C=C3Oc4cc(O)cc(O)c4C3=O)c2c1` [Example 91, 4,6-dihydroxy-2-[(5-methoxy-2-pyridin-3-yl-1H-indol-3-yl)methylene]-1-benzofuran-3(2H)-one], the IC50 was under 50 nM at human TOR; under 2.2 nM at PI3K-alpha (read-out: PI3Kα Avg. IC50); 5.5 nM on PI3K-beta; 1.8 nM on PI3K-delta (read-out: PI3Kδ Avg. IC50); 9.5 nM against PI3K-gamma.
Consider `COc1ccc2[nH]c(-c3cnn(C)c3)c(/C=C3\Oc4cc(O)cc(O)c4C3=O)c2c1` [Example 330, (2Z)-4,6-Dihydroxy-2-{[5-methoxy-2-(1-methyl-1H-pyrazol-4-yl)-1H-indol-3-yl]methylene}-1-benzofuran-3(2H)-one], for which the IC50 at human TOR was under 17 nM; at PI3K-alpha (read-out: PI3Kα Avg. IC50), under 1.8 nM; on PI3K-beta it was 1 nM; on PI3K-delta (read-out: PI3Kδ Avg. IC50) it was 1.5 nM; on PI3K-gamma, 3 nM.
In the same order, the values of `COc1ccc2c(c1)c(/C=C1\Oc3cc(O)ccc3C1=O)c(C1CC1)n2CCn1cccn1` [Example 355, (2Z)-2-({2-Cyclopropyl-5-methoxy-1-[2-(1H-pyrazol-1-yl)ethyl]-1H-indol-3-yl}methylene)-6-hydroxy-1-benzofuran-3(2H)-one] are 13 nM, 8.6 nM, 17 nM, 2.5 nM and 36 nM.
Consider `COC(=O)c1ccc2[nH]cc(C=C3Oc4cc(O)cc(O)c4C3=O)c2c1` [Example 166, methyl 3-[(4,6-dihydroxy-3-oxo-1-benzofuran-2(3H)-ylidene)methyl]-1H-indole-5-carboxylate], for which the IC50 on human TOR came to 1700 nM; on PI3K-alpha (read-out: PI3Kα Avg. IC50) it was 28 nM; on PI3K-beta it was 46 nM; at PI3K-delta (read-out: PI3Kδ Avg. IC50), 59 nM; at PI3K-gamma, 180 nM.
In the same order, the values of `COc1cc2c(C=C3Oc4cc(O)cc(O)c4C3=O)c(C)n(C)c2cc1C` [Example 185, 4,6-dihydroxy-2-[(5-methoxy-1,2,6-trimethyl-1H-indol-3-yl)methylene]-1-benzofuran-3(2H)-one] are 130 nM, 32.3 nM, 96.5 nM, 38 nM and 403 nM.
On to `FC(F)c1nc2ccccc2n1-c1nc(N2CCOCC2)nc(N2CCOCC2)n1` [ZSTK474, 2-(2-difluoromethylbenzoimidazol-1-yl)-4,6-dimorpholino-1,3,5-triazine], for which the IC50 at mTOR is over 10000 nM. Moreover, the “tumor growth in mouse human xenograft cancer models” value in [1] (chronic oral administration, 400 mg/kg, A549, PC-3, WiDr) was “completely inhibited growth”.
For `COc1ccc2c(c1)c(C=C1Oc3cc(O)cc(O)c3C1=O)cn2CCCN1CCN(CCO)CC1` [Example 113, 4,6-dihydroxy-2-[(1-{3-[4-(2-hydroxyethyl)piperazin-1-yl]propyl}-5-methoxy-1H-indol-3-yl)methylene]-1-benzofuran-3(2H)-one], the IC50 on human TOR came to 1650 nM; against PI3K-alpha (PI3Kα Avg. IC50), 37 nM; on PI3K-beta it was 243 nM; on PI3K-delta (read-out: PI3Kδ Avg. IC50) it was 7 nM; against PI3K-gamma it was 1360 nM.
On to `COc1ccc2c(c1)c(C=C1Oc3cc(O)cc(O)c3C1=O)c(C)n2CCCCN(C)C` [Example 101, 2-({1-[4-(dimethylamino)butyl]-5-methoxy-2-methyl-1H-indol-3-yl}methylene)-4,6-dihydroxy-1-benzofuran-3(2H)-one], for which the concentration for half-maximal inhibition (IC50) at human TOR is 46 nM; on PI3K-alpha (read-out: PI3Kα Avg. IC50) it was 5.3 nM; at PI3K-beta, 6.5 nM; at PI3K-delta (read-out: PI3Kδ Avg. IC50) it was 1 nM; on PI3K-gamma, 377 nM.
On to `CCn1c(C)c(/C=C2\Oc3ccc(NC(=O)Nc4ccc(C(=O)N(C)CCN(C)C)cc4)cc3C2=O)c2cc(OC)ccc21` [Compound 639, N-[2-(dimethylamino)ethyl]-4-[({(2Z)-2-[(1-ethyl-5-methoxy-2-methyl-1H-indol-3-yl)methylene]-3-oxo-2,3-dihydro-1-benzofuran-5-yl}carbamoyl)amino]-N-methylbenzamide], for which the IC50 on human TOR was determined as 12 nM; on PI3K-alpha (read-out: PI3Kα Avg. IC50) it was 0.33 nM; on PI3K-beta, 5 nM; on PI3K-delta (read-out: PI3Kδ Avg. IC50), 1.45 nM; at PI3K-gamma it was 3.42 nM.
The like results for `COc1ccc2[nH]c(-c3cncnc3)c(/C=C3\Oc4cc(O)cc(O)c4C3=O)c2c1` [Example 354, (2Z)-4,6-Dihydroxy-2-[(5-methoxy-2-pyrimidin-5-yl-1H-indol-3-yl)methylene]-1-benzofuran-3(2H)-one] were, in that order, 18 nM, 6.5 nM, 44 nM, 14.5 nM and 55 nM.
